From US11453689B2, “3-pyrrolidine-indole derivatives as serotonergic psychedelic agents for the treatment of CNS disorders” (Mindset Pharma Inc., priority 2020, dated 2022)

Experiments:
[1] = Human liver microsomes stability with NADPH
Protocol: (§1) The objective of this study was to estimate in vitro metabolic stability of exemplary compounds in pooled human, male rat and male mouse liver microsomes. The concentrations of exemplary compounds in reaction systems were evaluated by LC-MS/MS for estimating the stability in pooled human, male rat and male mouse liver microsomes. The in vitro intrinsic clearances of test compounds were determined as well.
(§2) A master solution in the “Incubation Plate” containing phosphate buffer, ultra-pure H2O, MgCl2 solution and liver microsomes was made according to Table 3. The mixture was pre-warmed at 37° C. water bath for 5 minutes.
(§3) 40 μL of 10 mM NADPH solution was added to each well. The final concentration of NADPH was 1 mM. The negative control samples were prepared by replacing NADPH with 40 μL of ultra-pure H2O. Samples were prepared in duplicate. Negative controls were prepared in singlet.
(§4) The reaction was started with the addition of 4 μL of 200 μM exemplary test compounds or control compounds to each master solution to get the final concentration of 2 μM. This study was performed in duplicate.
(§5) Aliquots of 50 μL were taken from the reaction solution at 0, 15, 30, 45 and 60 minutes. The reaction solutions were stopped by the addition of 4 volumes of cold methanol with IS (100 nM alprazolam, 200 nM imipramine, 200 nM labetalol and 2 μM ketoprofen). Samples were centrifuged at 3,220 g for 40 minutes. Aliquot of 90 μL of the supernatant was mixed with 90 μL of ultra-pure H2O and then was used for LC-MS/MS analysis.
(§6) LC/MS analysis was performed for all samples from this study using a Shimadzu liquid chromatograph separation system equipped with degasser DGU-20A5R; solvent delivery unit LC-30AD; system controller SIL-30AC; column oven CTO-30A; CTC Analytics HTC PAL System. Mass spectrometric analysis was performed using an Triple Quad™ 5500 instrument.
(§7) All calculations were carried out using Microsoft Excel. Peak areas were determined from extracted ion chromatograms. The slope value, k, was determined by linear regression of the natural logarithm of the remaining percentage of the parent drug vs. incubation time curve.
(§8) Conversion of the in vitro t1/2 (min) into the in vitro intrinsic clearance (in vitro CLint, in μL/min/mg proteins) was done using the following equation (mean of duplicate determinations): […]

[2] = Mouse liver microsomes stability with NADPH
Protocol: as §1, §2, §3, §4, §5, §6, §7, §8

[3] = In vivo pharmacokinetics in male C57BL/6 mice (IV and PO); conditions: mouse; for AUC(0-t): read-out: AUC0-tlast; for half-life: read-out: Apparent t1/2 (converted); for MRT inf: read-out: MRT0-inf
Protocol: Example 26: In Vivo Assessment of the Pharmacokinetics in Mice and Rats […]
Male C57BL/6 mice (25-30 g) from Charles River Labs were acclimatized for a minimum of 5 days prior to dosing. Body weights will be recorded on the day of dosing.
Animals dosed p.o. were deprived of food overnight and fed ˜2 h following dosing.
Formulations were administered intravenously (i.v.) via the tail vein or orally (p.o.) by gavage with disposable feeding needles.
Serial blood samples were collected via tail snip. Terminal blood samples will be collected under isoflurane anesthesia by cardiac puncture.
All blood samples were transferred into K2EDTA tubes on wet ice and centrifuged within 5 min (3200×g for 5 min at 4° C.) to obtain plasma. Plasma will be stored at −80° C. until analysis.
(§9) AB Sciex QTRAP 4000 or 6500 MS/MS system equipped with an LC system with a binary pump, a solvent degasser, a thermostatted column compartment and a multiplate autosampler. i. Analysis software: Phoenix® WinNonlin® 8.2 (Pharsight, Certara, Mountainview, Calif.) ii. Analysis methods: non-compartmental analysis, linear up/log down trapezoidal rule iii. PK parameters: C0, t1/2, AUC0-tlast. AUC0-∞, CL, Vss, MRT, tmax(po), Cmax(po), F, as appropriate • C0 concentration extrapolated to time zero following an i.v. dose • tmax time at which maximum concentration is observed • Cmax maximum observed concentration • Apparent t1/2 apparent terminal half-life • AUC0-tlast area under the concentration vs time curve from time 0 to the time of the last measurable concentration • AUC0-inf area under the concentration vs time curve from time 0 to infinity • CL systemic clearance • MRT0-inf mean residence time from time zero to infinity • Vss steady-state volume of distribution • F bioavailability=(Dose^iv*AUC^po)/(Dose^po*AUC^iv)*100

[4] = In vivo pharmacokinetics in male SD rats (IV and PO); conditions: rat; for AUC(0-t): read-out: AUC0-tlast; for half-life: read-out: Apparent t1/2 (converted); for MRT inf: read-out: MRT0-inf
Protocol: as §9, with “Example 26: In Vivo Assessment of the Pharmacokinetics in Mice and Rats Formulations were administered intravenously (i.v.) via the tail vein” for “AB Sciex QTRAP 4000”, “orally (p.o.) by gavage” for “6500 MS/MS system equipped”, “disposable feeding needles.” for “an LC system with a binary pump, a solvent degasser, a thermostatted column compartment and a multiplate autosampler.”

[5] = male, C57BL/6, plasma, IV, 1 mg/kg
[6] = male, C57BL/6, plasma, PO, 10 mg/kg
[7] = male, SD, plasma, IV, 0.3 mg/kg

[2H]C([2H])(c1c[nH]c2cccc(O)c12)[C@H]1CCCN1C([2H])([2H])[2H] [Compound I-44, (R)-3-((1-(methyl-d3)pyrrolidin-2-yl)methyl-d2)-1H-indol-4-ol]
Remaining Percentage (%) after 60 min, Human ([1]; human liver microsomes, with NADPH, 2 μM): 78.13%
half-life at 2 μM ([1]; human, microsomes): 2.81 h
microsomal CLint at 2 μM ([1]; human, microsomes): 8.23 µL/min/mg
half-life at 2 μM ([2]; male, mouse, microsomes): 1.18 h
microsomal CLint at 2 μM ([2]; male, mouse, microsomes): 19.5 µL/min/mg
Remaining Percentage (%) after 60 min, Mouse ([2]; mouse liver microsomes, with NADPH, 2 μM): 55.68%
AUC(0-inf) [3, 5]: 598 ± 434 ng·h/mL
C0 [3, 5]: 2570 ± 2560 ng/mL
clearance [3, 5]: 42.5 mL/min/kg
AUC(0-t) [3, 5]: 595 ± 433 ng·h/mL
half-life [3, 5]: 1.18 ± 0.205 h
MRT inf [3, 5]: 0.754 ± 0.12 h
Vd ([3]; male, C57BL/6, plasma, IV, 1 mg/kg, read-out: Vss): 1.98 ± 1.58 L/kg
AUC(0-inf) [3, 6]: 537 ± 274 ng·h/mL
Cmax [3, 6]: 158 ± 55.4 ng/mL
Tmax [3, 6]: 0.75 ± 0.433 h
AUC(0-t) [3, 6]: 477 ± 260 ng·h/mL
half-life [3, 6]: 2.71 ± 0.511 h
bioavailability ([3]; male, C57BL/6, plasma, PO, 10 mg/kg, read-out: F (bioavailability)): 8.98 ± 4.58%
MRT inf [3, 6]: 3.5 ± 0.965 h
AUC0-inf/Dose ([3]; IV, 1 mg/kg): 598 ± 434 kg·ng·h/mL/mg
AUC0-inf/Dose ([3]; PO, 10 mg/kg): 53.7 ± 27.4 kg·ng·h/mL/mg
Cmax/Dose ([3]; PO, 10 mg/kg): 15.8 ± 5.54 kg·ng/mL/mg
AUC(0-inf) [4, 7]: 27.3 ± 0.413 ng·h/mL
C0 [4, 7]: 70.2 ± 2.67 ng/mL
clearance [4, 7]: 183 mL/min/kg
AUC(0-t) [4, 7]: 26.4 ± 0.186 ng·h/mL
half-life [4, 7]: 0.43 ± 0.0371 h
MRT inf [4, 7]: 0.528 ± 0.0255 h
Vd ([4]; male, SD, plasma, IV, 0.3 mg/kg, read-out: Vss): 5.8 ± 0.196 L/kg
AUC(0-inf) ([4]; male, SD, plasma, PO, 3 mg/kg): 392 ± 109 ng·h/mL
Cmax ([4]; male, SD, plasma, PO, 3 mg/kg): 182 ± 107 ng/mL
Tmax ([4]; male, SD, plasma, PO, 3 mg/kg): 0.5 ± 0.433 h
AUC(0-t) ([4]; male, SD, plasma, PO, 3 mg/kg): 384 ± 98.9 ng·h/mL
half-life ([4]; male, SD, plasma, PO, 3 mg/kg): 3.25 ± 1.36 h
bioavailability ([4]; male, SD, plasma, PO, 3 mg/kg, read-out: F (bioavailability)): 144 ± 40.1%
MRT inf ([4]; male, SD, plasma, PO, 3 mg/kg): 3.14 ± 1.52 h
AUC0-inf/Dose ([4]; IV, 0.3 mg/kg): 91.0 ± 1.38 kg·ng·h/mL/mg
AUC0-inf/Dose ([4]; PO, 3 mg/kg): 131 ± 36.5 kg·ng·h/mL/mg
Cmax/Dose ([4]; PO, 3 mg/kg): 60.7 ± 35.5 kg·ng/mL/mg
